Measured values as given in ChEMBL document CHEMBL1201862, “PubChem BioAssay data set” (2004).
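Results reflect a 48-hour exposure of cells in 96-well plates to compound at five concentrations. At the GI50, growth is halved.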 Active and inactive are the calls of the source. Rule as the data show it: active = GI50 up to about 1.1 µM and inactive = higher.

Tests used:
Test in all cases: growth of human tumour cells (NCI), 48 h
[1] = test system: DLD-1
[2] = test system: DMS-114
[3] = test system: DMS-273
[4] = test system: HOP-18
[5] = test system: KM-20L2
[6] = test system: LXFL 529
[7] = test system: M19-MEL
[8] = test system: XF498
[9] = test system: RXF 631

Structure (SMILES) | GI50 [1] | GI50 [2] | GI50 [3] | GI50 [4] | GI50 [5] | GI50 [6] | GI50 [7] | GI50 [8] | GI50 [9]
N#C/C(=C\c1ccc(CP(=O)(O)O)cc1)C(N)=O | > 100 µM (inactive) | > 100 µM (inactive) | > 100 µM (inactive) | > 100 µM (inactive) | > 100 µM (inactive) | > 100 µM (inactive) | > 100 µM (inactive) | > 100 µM (inactive) | –
COc1cc(C)c(O)c(C(=O)O)c1 | > 100 µM (inactive) | > 100 µM (inactive) | > 100 µM (inactive) | > 100 µM (inactive) | > 100 µM (inactive) | > 100 µM (inactive) | > 100 µM (inactive) | > 100 µM (inactive) | –
Cc1nc(N)sc1C(=O)/C=C\c1ccc2c(c1)OCO2 | > 100 µM (inactive) | > 100 µM (inactive) | > 100 µM (inactive) | > 100 µM (inactive) | > 100 µM (inactive) | > 100 µM (inactive) | > 100 µM (inactive) | > 100 µM (inactive) | > 100 µM (inactive)
O=c1ccn([C@@H]2C[C@H](CO)C[S+]([O-])C2)c(=O)[nH]1 (stereo not given in full) | > 100 µM (inactive) | > 100 µM (inactive) | > 100 µM (inactive) | > 100 µM (inactive) | > 100 µM (inactive) | > 100 µM (inactive) | > 100 µM (inactive) | – | –
C=CC1(NS(=O)(=O)c2ccc(C)cc2)CCC(C(C)(C)C)CC1 (stereo not given) | > 100 µM (inactive) | 27 µM (inactive) | 43.5 µM (inactive) | 37.5 µM (inactive) | > 100 µM (inactive) | 99.5 µM (inactive) | > 100 µM (inactive) | – | –
NC(=O)CC(N/C=C1/N=C(c2ccccc2)OC1=O)C(=O)O (stereo not given) | > 100 µM (inactive) | > 100 µM (inactive) | > 100 µM (inactive) | > 100 µM (inactive) | > 100 µM (inactive) | > 100 µM (inactive) | > 100 µM (inactive) | – | > 100 µM (inactive)
COc1cc([C@@H]2c3cc4c(cc3C(N)C3COC(=O)[C@@H]32)OCO4)cc(OC)c1O (stereo not given in full) | 0.377 µM (active) | 0.245 µM (active) | – | > 100 µM (inactive) | 0.176 µM (active) | 0.117 µM (active) | 0.334 µM (active) | – | 0.178 µM (active)
CN(CCCCN)c1ccc2c(=O)[nH][nH]c(=O)c2c1 | > 100 µM (inactive) | > 100 µM (inactive) | > 100 µM (inactive) | > 100 µM (inactive) | – | > 100 µM (inactive) | – | > 100 µM (inactive) | > 10 µM (inactive)
Cc1cc(C)c(C2[C@H]3C(=O)N(c4ccc(Cc5ccc(N6C(=O)[C@@H]7ON(c8ccccc8)C(c8c(C)cc(C)cc8C)[C@@H]7C6=O)cc5)cc4)C(=O)[C@H]3ON2c2ccccc2)c(C)c1 (stereo not given in full) | > 100 µM (inactive) | > 100 µM (inactive) | > 100 µM (inactive) | > 100 µM (inactive) | > 100 µM (inactive) | > 100 µM (inactive) | > 100 µM (inactive) | – | > 100 µM (inactive)
CN1N=C2NCCNC3=NN(C)/C(=N/CC/N=C/1S2)S3 | > 100 µM (inactive) | – | > 100 µM (inactive) | > 100 µM (inactive) | > 100 µM (inactive) | > 100 µM (inactive) | > 100 µM (inactive) | – | –
NC(CCCNc1cccc(O)c1)C(=O)O (stereo not given) | > 100 µM (inactive) | > 100 µM (inactive) | > 100 µM (inactive) | > 100 µM (inactive) | > 100 µM (inactive) | > 100 µM (inactive) | > 100 µM (inactive) | – | –
CC1(C)C(c2ccccc2)=NN(O)c2ccccc21 | > 100 µM (inactive) | – | > 100 µM (inactive) | > 100 µM (inactive) | > 100 µM (inactive) | > 100 µM (inactive) | > 100 µM (inactive) | – | –
CC1CCN(CCC(=O)CC(c2ccccc2)c2c(O)c3ccccc3oc2=O)CC1 (stereo not given) | > 100 µM (inactive) | > 100 µM (inactive) | > 100 µM (inactive) | – | > 100 µM (inactive) | – | > 100 µM (inactive) | > 100 µM (inactive) | > 100 µM (inactive)
O=C1c2ccccc2C2CCC1c1ccccc12 (stereo not given) | 33.5 µM (inactive) | 19.4 µM (inactive) | 27.4 µM (inactive) | 73.6 µM (inactive) | 32.8 µM (inactive) | 36.3 µM (inactive) | 25.6 µM (inactive) | 29.5 µM (inactive) | –
Cc1ccc(/C=C/C(=O)CCN(C)C)cc1 | 18.1 µM (inactive) | 18.3 µM (inactive) | 13 µM (inactive) | 20.7 µM (inactive) | 18.3 µM (inactive) | 19.4 µM (inactive) | 19.7 µM (inactive) | 14.2 µM (inactive) | –
CC(C)(c1ccccc1)c1ccc(OC#N)cc1 | > 44.5 µM (inactive) | 28.4 µM (inactive) | 17 µM (inactive) | > 100 µM (inactive) | > 60.3 µM (inactive) | > 78.3 µM (inactive) | > 60.1 µM (inactive) | 44.6 µM (inactive) | –
C=C[C@@]1(O)CCCC2=C(C(=O)OCC)CC[C@]21C | > 100 µM (inactive) | 44 µM (inactive) | 37.5 µM (inactive) | 99.8 µM (inactive) | – | > 100 µM (inactive) | > 100 µM (inactive) | – | –
Nc1ccccc1Nc1ccccc1C(=O)[O-].Nc1ccccc1Nc1ccccc1C(=O)[O-].[Zn+2] | – | – | – | – | > 100 µM (inactive) | – | – | 28.1 µM (inactive) | –
C[C@]1(CO)CCC[C@@]2(C)C1CC[C@H]1CC3C[C@]12CC[C@]3(C)O (stereo not given in full) | 32.4 µM (inactive) | 40.2 µM (inactive) | > 100 µM (inactive) | – | > 100 µM (inactive) | 2.86 µM (inactive) | – | 47.1 µM (inactive) | 42.3 µM (inactive)
CCOC(=O)Oc1c(OC)cc(C(=O)NC2CCc3cc(OC)c(OC)c(OC)c3-c3ccc(SC)c(=O)cc32)cc1OC (stereo not given) | 0.0723 µM (active) | 0.0261 µM (active) | < 0.007 µM (active) | – | 0.0853 µM (active) | 0.0386 µM (active) | 0.047 µM (active) | 0.0681 µM (active) | –
O=C1CCCN(c2ccccc2)N1 | – | > 100 µM (inactive) | > 100 µM (inactive) | – | > 100 µM (inactive) | > 100 µM (inactive) | > 100 µM (inactive) | – | > 100 µM (inactive)
COc1cc2c[n+](C)c3c4cc(OC)c(OC)cc4c(OCCCCCCCCOc4cc5c6cc(OC)c(OC)cc6c[n+](C)c5c5cc(OC)c(OC)cc45)cc3c2cc1OC | > 100 µM (inactive) | 22.1 µM (inactive) | 20 µM (inactive) | > 100 µM (inactive) | 80 µM (inactive) | > 100 µM (inactive) | 53.1 µM (inactive) | > 100 µM (inactive) | –
